From US20240398817A1, “CARDIO- AND RENOSAFE ANTIDIABETIC THERAPY” (priority 2018, published 2024)

System: patients with type 2 diabetes at high vascular risk
Assay: Cardiovascular and Renal Outcomes Trial: linagliptin 5 mg once daily vs placebo on top of standard of care
Format: in vivo
Conditions: for Hazard ratio for hospitalised heart failure: vs placebo
Description: The effect of linagliptin on cardiovascular risk in adult patients with type 2 diabetes mellitus and with increased CV risk evidenced by a history of established macrovascular or renal disease (e.g. as defined herein) was evaluated in a multi-center, multi-national, randomized, double-blind parallel group trial. The trial compared the risk of experiencing a major adverse cardiovascular event (MACE) between linagliptin and placebo when these were added to and used concomitantly with standard of care treatments for diabetes (HbA1c), cardiovascular risk factors and renal disease.
The primary endpoint in this trial was the time to first occurrence of three point (3P) MACE. A major adverse cardiac event was defined as a cardiovascular death or a nonfatal myocardial infarction (MI) or a nonfatal stroke. The statistical analysis plan tested for non-inferiority for the occurrence of (3P) MACE. […] The secondary endpoint was a renal composite, defined as renal death or sustained end stage renal disease or sustained decrease of 40% or more in eGFR.
Type 2 diabetes patient with insufficient glycemic control (naïve or pre-treated with any antidiabetic background medication, excluding treatment with GLP-1 receptor agonists, DPP-4inhibitors or SGLT-2 inhibitors if ≥consecutive 7 days, e.g. having HbA1c 6.5-10%), and high risk of cardiovascular events, e.g. defined by: • albuminuria (micro or macro) and previous macrovascular disease: e.g. defined according to Condition I as indicated below; • and/or • impaired renal function: e.g. as defined according to Condition II as indicated below;
Background and aims: People with type 2 diabetes (T2D) are at increased risk for hospitalization for heart failure (hHF), particularly in the setting of concomitant cardiovascular (CV) and/or kidney disease. […] Here we present analyses of HF outcomes with the DPP-4 inhibitor linagliptin (LINA) vs. placebo (PBO) from a Cardiovascular and Renal Outcomes Trial assessing cardiovascular safety and renal microvascular outcome in patients with type 2 diabetes at high vascular risk, a large CV outcomes trial that enrolled participants with T2D at high risk for hHF due to concomitant CV and/or chronic kidney disease. Materials and methods: People with T2D and concomitant CV and/or kidney disease were randomized to receive LINA 5 mg, or PBO once daily (1:1), on top of standard of care. All hHF, CV outcomes, and deaths were centrally adjudicated, with individual and composite HF-related outcomes analyses comparing LINA vs. placebo. Investigator-reported HF-related adverse events, whether or not confirmed by adjudication, were also analyzed. A Cox proportional hazards model adjusting for region and history of HF was used for analyses of first events. Recurrent hHF events were analyzed using a negative binomial model.
Methods: The present Cardiovascular and Renal Outcomes Trial randomized people with T2D and i) concomitant CV disease with UACR >30 mg/g or ii) prevalent CKD (i.e. GFR <45 ml/min/1.73m2 and/or UACR >200 mg/g) to receive the DPP-4 inhibitor linagliptin (5 mg) or placebo once daily in a double-blind fashion. The primary CV endpoint was 3P-MACE, with a key secondary kidney endpoint (adjudicated ESKD, renal death, or sustained ≥40% decrease in eGFR from baseline) and other renal outcomes (including albuminuria and eGFR slope) also assessed. Subgroups were assessed by baseline kidney function (eGFR ≥/<45 ml/min/1.73m2and eGFR ≥/<30, 45 or 60 ml/min/1.73m2).
Adults with type 2 diabetes, HbA1c 6.5-10.0% inclusive, and high CV risk were eligible for inclusion. […] Macrovascular disease eligibility criteria was based on documented and confirmed history of myocardial infarction, coronary artery disease, stroke, carotid artery disease, or peripheral artery disease. Participants with end-stage kidney disease (ESKD), defined as eGFR <15 or requiring maintenance dialysis, were excluded.

[1] = Urine albumin-to-creatinine ratio 30 to 300 mg/g
[2] = Urine albumin-to-creatinine ratio <30 mg/g
[3] = Urine albumin-to-creatinine ratio >300 mg/g

CC#CCn1c(N2CCC[C@@H](N)C2)nc2c1c(=O)n(Cc1nc(C)c3ccccc3n1)c(=O)n2C [Linagliptin, 1-[(4-methyl-quinazolin-2-yl)methyl]-3-methyl-7-(2-butyn-1-yl)-8-(3-(R)-amino-piperidin-1-yl)-xanthine]
3-point MACE: hazard ratio vs placebo (Race Other): 1.86 | 3-point MACE: patients with event/patients analyzed (Race Other): 23/166 | Key secondary kidney outcome: hazard ratio vs placebo (Race Other): 1.16 | Key secondary kidney outcome: patients with event/patients analyzed (Race Other): 23/166 | Patients with event/patients analysed, hospitalised heart failure (Race Other): 6/166 | 3-point MACE: hazard ratio vs placebo (Race White): 0.97 | 3-point MACE: patients with event/patients analyzed (Race White): 340/2827 | Key secondary kidney outcome: hazard ratio vs placebo (Race White): 1.03 | Key secondary kidney outcome: patients with event/patients analyzed (Race White): 237/2827 | Patients with event/patients analysed, hospitalised heart failure (Race White): 174/2827 | 3-point MACE: hazard ratio vs placebo (Region Asia): 0.90 | 3-point MACE: patients with event/patients analyzed (Region Asia): 29/272 | Key secondary kidney outcome: hazard ratio vs placebo (Region Asia): 0.96 | Key secondary kidney outcome: patients with event/patients analyzed (Region Asia): 29/272 | Patients with event/patients analysed, hospitalised heart failure (Region Asia): 12/272 | Hazard ratio for hospitalised heart failure (Region Asia): 0.47 | 3-point MACE: hazard ratio vs placebo (Region Europe + South Africa): 0.92 | 3-point MACE: patients with event/patients analyzed (Region Europe + South Africa): 182/1473 | Key secondary kidney outcome: hazard ratio vs placebo (Region Europe + South Africa): 0.96 | Key secondary kidney outcome: patients with event/patients analyzed (Region Europe + South Africa): 98/1473 | Patients with event/patients analysed, hospitalised heart failure (Region Europe + South Africa): 101/1473 | Hazard ratio for hospitalised heart failure (Region Europe + South Africa): 1.13 | 3-point MACE: hazard ratio vs placebo (Region Latin America): 1.10 | 3-point MACE: patients with event/patients analyzed (Region Latin America): 132/1156 | Key secondary kidney outcome: hazard ratio vs placebo (Region Latin America): 1.07 | Key secondary kidney outcome: patients with event/patients analyzed (Region Latin America): 149/1156 | Patients with event/patients analysed, hospitalised heart failure (Region Latin America): 54/1156 | Hazard ratio for hospitalised heart failure (Region Latin America): 0.99 | 3-point MACE: hazard ratio vs placebo (Region North America): 1.25 | 3-point MACE: patients with event/patients analyzed (Region North America): 91/593 | Key secondary kidney outcome: hazard ratio vs placebo (Region North America): 1.19 | Key secondary kidney outcome: patients with event/patients analyzed (Region North America): 51/593 | Patients with event/patients analysed, hospitalised heart failure (Region North America): 42/593 | Hazard ratio for hospitalised heart failure (Region North America): 0.65 | Key secondary kidney outcome: hazard ratio vs placebo (SBP 140 mmHg or DBP ≥90 mmHg): 1.08 | Key secondary kidney outcome: patients with event/patients analyzed (SBP 140 mmHg or DBP ≥90 mmHg): 222/1800 | 3-point MACE: hazard ratio vs placebo (SBP <140 mmHg and DBP <90 mmHg): 0.93 | 3-point MACE: patients with event/patients analyzed (SBP <140 mmHg and DBP <90 mmHg): 185/1694 | Key secondary kidney outcome: hazard ratio vs placebo (SBP <140 mmHg and DBP <90 mmHg): 0.99 | Key secondary kidney outcome: patients with event/patients analyzed (SBP <140 mmHg and DBP <90 mmHg): 105/1694 | 3-point MACE: hazard ratio vs placebo (SBP ≥140 mmHg or DBP ≥90 mmHg): 1.11 | 3-point MACE: patients with event/patients analyzed (SBP ≥140 mmHg or DBP ≥90 mmHg): 249/1800 | 3-point MACE: hazard ratio vs placebo (Sulfonylurea No): 0.98 | 3-point MACE: patients with event/patients analyzed (Sulfonylurea No): 315/2392 | Key secondary kidney outcome: hazard ratio vs placebo (Sulfonylurea No): 1.10 | Key secondary kidney outcome: patients with event/patients analyzed (Sulfonylurea No): 252/2392 | Patients with event/patients analysed, hospitalised heart failure (Sulfonylurea No): 166/2392 | Hazard ratio for hospitalised heart failure (Sulfonylurea No): 0.92 | 3-point MACE: hazard ratio vs placebo (Sulfonylurea Yes): 1.15 | 3-point MACE: patients with event/patients analyzed (Sulfonylurea Yes): 119/1102 | Key secondary kidney outcome: hazard ratio vs placebo (Sulfonylurea Yes): 0.87 | Key secondary kidney outcome: patients with event/patients analyzed (Sulfonylurea Yes): 75/1102 | Patients with event/patients analysed, hospitalised heart failure (Sulfonylurea Yes): 43/1102 | Hazard ratio for hospitalised heart failure (Sulfonylurea Yes): 0.82 | Composite microvascular endpoint: patients, % (Table 6): (36.3) % | ESKD (component of kidney composite outcome): % (Table 6): (0.03) % | ESKD (component of kidney composite outcome): no. (Table 6): 1 | Renal death, sustained ESKD, or sustained decrease of 50% or more in eGFR from baseline: % (Table 6): (7.5) % | Renal death, sustained ESKD, or sustained decrease of 50% or more in eGFR from baseline: no. (Table 6): 263 | Sustained decrease of 40% or more in eGFR (component of kidney composite outcome): % (Table 6): (1.8) % | Sustained decrease of 40% or more in eGFR (component of kidney composite outcome): no. (Table 6): 63 | Composite microvascular outcome: number of patients, % of n = 3494 (Table 9): 22.5% | 3-point MACE: hazard ratio vs placebo (UACR 30 to 300 mg/g): 0.95 | 3-point MACE: patients with event/patients analyzed (UACR 30 to 300 mg/g): 158/1463 | Key secondary kidney outcome: hazard ratio vs placebo (UACR 30 to 300 mg/g): 1.30 | Key secondary kidney outcome: patients with event/patients analyzed (UACR 30 to 300 mg/g): 53/1463 | 3-point MACE: hazard ratio vs placebo (UACR <30 mg/g): 1.10 | 3-point MACE: patients with event/patients analyzed (UACR <30 mg/g): 67/696 | Key secondary kidney outcome: hazard ratio vs placebo (UACR <30 mg/g): 1.46 | Key secondary kidney outcome: patients with event/patients analyzed (UACR <30 mg/g): 22/696 | 3-point MACE: hazard ratio vs placebo (UACR >300 mg/g): 1.06 | 3-point MACE: patients with event/patients analyzed (UACR >300 mg/g): 208/1333 | Key secondary kidney outcome: hazard ratio vs placebo (UACR >300 mg/g): 0.97 | Key secondary kidney outcome: patients with event/patients analyzed (UACR >300 mg/g): 252/1333 | Patients with event/patients analysed, hospitalised heart failure [1]: 72/1463 | Hazard ratio for hospitalised heart failure [1]: 0.86 | Patients with event/patients analysed, hospitalised heart failure [2]: 26/696 | Hazard ratio for hospitalised heart failure [2]: 0.76 | Patients with event/patients analysed, hospitalised heart failure [3]: 111/1333 | Hazard ratio for hospitalised heart failure [3]: 0.99 | HbA1c vs PBO across all GFR categories, in words (across GFR categories): reduced significantly | Risk for hypoglycemia vs PBO across all GFR categories, in words (across GFR categories): without increased risk for hypoglycemia | Progression of albuminuria across all eGFR categories, in words (across eGFR categories): consistent beneficial effect | 3P-MACE: incidence rate per 1000 PY (all patients): 57.7 per 1000 patient years
